Measured values: patent US4782139A, “Selective chemical removal of a protein amino-terminal residue” (Eli Lilly and Company, priority 1986, dated 1988)
One block for each molecule: values may come before it. Residues, ends and D or L forms follow the SMILES beside them. No end group written: not given here.

Columns and labels:
[1] = Organic cleavage conditions: diketopiperazine formation and disappearance of starting peptide, reverse phase chromatography; type: physicochemical
Text: […] A molecular sieves for one week. […] The rate of cleavage was monitored by appearance of methionyl-proline diketopiperazine formation and disappearance of starting peptide as measured in reverse phase chromatographic analysis. Chromatography was achieved using a 0.46×25 cm column of Ultrosphere C18 in 0.1% trifluoroacetic acid (TFA), using an acetonitrile gradient to effect elution. The reaction was stopped at each analysis time point by ten-fold dilution with 0.1% trifluoroacetic acid. The diketopiperazine peak was collected and its identity confirmed by amino acid and mass spectral analysis.

[2] = Protein stability under organic cleavage conditions, reverse phase HPLC; conditions: 40° C.; for Protein Stability, relative percent remaining: against an untreated external control
Method: Analysis of the products obtained via the foregoing cleavage methods upon a representative sampling of peptides and proteins was assessed by high performance anion exchange and reverse phase chromatography. Anion exchange chromatography was conducted on a Mono Q column in a 0.05M Tris, pH 8.0 buffer containing 30% acetonitrile. Elution was provided using a linear gradient of sodium chloride. Reverse phase analysis was performed on a Zorbax C8, 150Å pore size column using an acetonitrile gradient in 0.1M ammonium phosphate at 45° C., pH 7.0.

[3] = Protein stability under organic cleavage conditions, anion exchange HPLC; type: physicochemical; conditions: 40° C.
Method: Anion exchange chromatography was conducted on a Mono Q column in a 0.05M Tris, pH 8.0 buffer containing 30% acetonitrile. Elution was provided using a linear gradient of sodium chloride. Reverse phase analysis was performed on a Zorbax C8, 150Å pore size column using an acetonitrile gradient in 0.1M ammonium phosphate at 45° C., pH 7.0.

quantity of starting material remaining ([1]; 1 M HOAc/CH2 Cl2, 25° C., 0 h): 100%
quantity of starting material remaining ([1]; 1 M HOAc/CH2 Cl2, 25° C., 2 h): 104%
quantity of starting material remaining ([1]; 1 M HOAc/CH2 Cl2, 25° C., 4 h): 96%
quantity of starting material remaining ([1]; 1 M HOAc/CH2 Cl2, 25° C., 6 h): 99%
quantity of starting material remaining ([1]; 1 M HOAc/CH2 Cl2, 25° C., 24 h): 80%
quantity of starting material remaining ([1]; 1 M HOAc/CH3 CN, 25° C., 0 h): 100%
quantity of starting material remaining ([1]; 1 M HOAc/CH3 CN, 25° C., 2 h): 114%
quantity of starting material remaining ([1]; 1 M HOAc/CH3 CN, 25° C., 4 h): 105%
quantity of starting material remaining ([1]; 1 M HOAc/CH3 CN, 25° C., 6 h): 99%
quantity of starting material remaining ([1]; 1 M HOAc/CH3 CN, 25° C., 24 h): 66%
quantity of starting material remaining ([1]; 1 M HOAc/DMF, 25° C., 0 h): 100%
quantity of starting material remaining ([1]; 1 M HOAc/DMF, 25° C., 2 h): 88%
quantity of starting material remaining ([1]; 1 M HOAc/DMF, 25° C., 4 h): 71%
quantity of starting material remaining ([1]; 1 M HOAc/DMF, 25° C., 6 h): 57%
quantity of starting material remaining ([1]; 1 M HOAc/DMF, 25° C., 24 h): 11%
quantity of starting material remaining ([1]; 1 M HOAc/DMSO, determined at 40° C., 0 h): 100%
quantity of starting material remaining ([1]; 1 M HOAc/DMSO, determined at 40° C., 2 h): 73%
quantity of starting material remaining ([1]; 1 M HOAc/DMSO, determined at 40° C., 4 h): 56%
quantity of starting material remaining ([1]; 1 M HOAc/DMSO, determined at 40° C., 24 h): 6%
quantity of starting material remaining ([1]; 1 M HOAc/MeOH, 25° C., 0 h): 100%
quantity of starting material remaining ([1]; 1 M HOAc/MeOH, 25° C., 2 h): 101%
quantity of starting material remaining ([1]; 1 M HOAc/MeOH, 25° C., 4 h): 99%
quantity of starting material remaining ([1]; 1 M HOAc/MeOH, 25° C., 6 h): 99%
quantity of starting material remaining ([1]; 1 M HOAc/MeOH, 25° C., 24 h): 97%
quantity of starting material remaining ([1]; 1 M HOAc/nPrOH, 25° C., 2 h): 100%
quantity of starting material remaining ([1]; 1 M HOAc/nPrOH, 25° C., 4 h): 97%
quantity of starting material remaining ([1]; 1 M HOAc/nPrOH, 25° C., 6 h): 94%
quantity of starting material remaining ([1]; 1 M HOAc/nPrOH, 25° C., 24 h): 72%
Molecule: CSCC[C@H](N)C(=O)N1CCC[C@H]1C(=O)NCC(=O)NCC(N)=O [Met--Pro--Gly--Gly--NH2] (H-MPGG-NH2)

Protein Stability, relative percent remaining ([2]; 1 M HOAc/DMF, 2 h): 42%
Protein Stability, relative percent remaining ([2]; 1 M HOAc/DMF, 24 h): 40%
Protein Stability, relative percent remaining ([2]; 1 M HOAc/DMF, 48 h): 32%
Protein Stability, relative percent remaining ([2]; 1 M HOAc/DMSO, 2 h): 52%
Protein Stability, relative percent remaining ([2]; 1 M HOAc/DMSO, 24 h): 90%
Protein Stability, relative percent remaining ([2]; 1 M HOAc/DMSO, 48 h): 86%
Molecule: APLEPEYPGDNATPEQMAQYAAELRRYINMLTRPRY-NH2 [bPP, bovine pancreatic polypeptide, reference compound]

Molecule: Proinsulin
Protein Stability, relative percent remaining ([2]; 1 M HOAc/DMF, 2 h): 86%
Protein Stability, relative percent remaining ([2]; 1 M HOAc/DMF, 24 h): 43%
Protein Stability, relative percent remaining ([2]; 1 M HOAc/DMF, 48 h): 30%
Protein Stability, relative percent remaining ([2]; 1 M HOAc/DMSO, 2 h): 97%
Protein Stability, relative percent remaining ([2]; 1 M HOAc/DMSO, 24 h): 70%
Protein Stability, relative percent remaining ([2]; 1 M HOAc/DMSO, 48 h): 86%

Molecule: insulin Achain Ssulfonate [A(SO3^- )4, reference compound]
Protein Stability, relative percent remaining ([2]; 1 M HOAc/DMF, 2 h): 100%
Protein Stability, relative percent remaining ([2]; 1 M HOAc/DMF, 24 h): 58%
Protein Stability, relative percent remaining ([2]; 1 M HOAc/DMSO, 2 h): 100%
Protein Stability, relative percent remaining ([2]; 1 M HOAc/DMSO, 24 h): 100%
Protein Stability, relative percent remaining ([2]; 1 M HOAc/DMSO, 48 h): 96%

Molecule: insulin Bchain Ssulfonate [B(SO3^- )2, reference compound]
Protein Stability, relative percent remaining ([2]; 1 M HOAc/DMF, 2 h): 97%
Protein Stability, relative percent remaining ([2]; 1 M HOAc/DMF, 24 h): 62%
Protein Stability, relative percent remaining ([2]; 1 M HOAc/DMSO, 2 h): 94%
Protein Stability, relative percent remaining ([2]; 1 M HOAc/DMSO, 24 h): 106%

Molecule: methionyl human growth hormone
Stability, determined by anion exchange HPLC ([3]; 0.33 M HOAc/DMF, 2 h): 78
Stability, determined by anion exchange HPLC ([3]; 0.33 M HOAc/DMF, 4 h): 68
Stability, determined by anion exchange HPLC ([3]; 0.33 M HOAc/DMF, 24 h): 34
Stability, determined by anion exchange HPLC ([3]; 0.33 M HOAc/DMSO, 2 h): 100
Stability, determined by anion exchange HPLC ([3]; 0.33 M HOAc/DMSO, 4 h): 99
Stability, determined by anion exchange HPLC ([3]; 0.33 M HOAc/DMSO, 24 h): 86
Stability, determined by anion exchange HPLC ([3]; 0.33 M HOAc/NMP, 2 h): 90
Stability, determined by anion exchange HPLC ([3]; 0.33 M HOAc/NMP, 4 h): 89
Stability, determined by anion exchange HPLC ([3]; 0.33 M HOAc/NMP, 24 h): 75
Stability, determined by reverse phase HPLC ([2]; 0.33 M HOAc/DMF, 2 h): 78
Stability, determined by reverse phase HPLC ([2]; 0.33 M HOAc/DMF, 4 h): 65
Stability, determined by reverse phase HPLC ([2]; 0.33 M HOAc/DMF, 24 h): 45
Stability, determined by reverse phase HPLC ([2]; 0.33 M HOAc/DMSO, 2 h): 91
Stability, determined by reverse phase HPLC ([2]; 0.33 M HOAc/DMSO, 4 h): 77
Stability, determined by reverse phase HPLC ([2]; 0.33 M HOAc/DMSO, 24 h): 75
Stability, determined by reverse phase HPLC ([2]; 0.33 M HOAc/NMP, 2 h): 85
Stability, determined by reverse phase HPLC ([2]; 0.33 M HOAc/NMP, 4 h): 70
Stability, determined by reverse phase HPLC ([2]; 0.33 M HOAc/NMP, 24 h): 77
